Source: PubChem BioAssay AID624491 (Broad Institute, 2012)

Test system: D54 ERlucT glycosylation luciferase reporter, luminescence, 24 h
Experiment: blockers of NLG process in reporter cells – D54 ERlucT cells, luminescence, cherry-picks, dose response (AID 624491);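 further: signal gain reflects blocked N-linked glycosylation of a luciferase reporter; actives raise luciferase signal so AC26 marks activators of the reporter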

**Q.** For `CCc1ccc(N2CC(C(=O)Nc3ccccc3N3CCCC3)CC2=O)cc1` (stereo unspecified), which AC26 is on record?
**A.** The AC26 was 5370 nM.

**Q.** With `C=C(C)Cn1c2ccc(NC(=O)CCc3cccc(Cl)c3)cc2c(=O)n1C` as the compound, how does the AC26 read?
**A.** Its AC26 is 7490 nM.

**Q.** Which AC26 does the source give for `c1cnc2nc3c4ccccc4c4ccccc4c3nc2c1` here?
**A.** The AC26 was 10200 nM.

**Q.** With `O=C(NCCN1C(=O)S/C(=C\c2ccccc2Cl)C1=O)C1=COCCO1` as the compound, how does the AC26 read?
**A.** Its AC26 is 7850 nM.

**Q.** With `COCCCNc1nnc(Cc2ccc(Cl)cc2)c(=O)[nH]1` as the compound, how does the AC26 read?
**A.** The AC26 was 1050 nM.

**Q.** `COC(=O)C1=C(c2cc3ccccc3o2)C[C@@H]2CC[C@H]1N2C(=O)N1CCCCC1` was tested. Which AC26 did it give?
**A.** Its AC26 is 14200 nM.

**Q.** How did the AC26 turn out when `COc1ccc(C2C3=C(COC3=O)Oc3cc4c(cc32)OCO4)cc1OC` (stereo unspecified) was run?
**A.** The AC26 was 1780 nM.

**Q.** How did the AC26 turn out when `COc1ccc(N2CCc3c(C)nc4c(OC)cccc4c32)cc1` was run?
**A.** The AC26 was 368 nM.

**Q.** With `CC1=CC(C)[C@H](/C=N/n2c(=O)[nH]c3c([nH]c4ccc(C)cc43)c2=O)C(C)C1` (stereo partly specified) as the compound, how does the AC26 read?
**A.** The AC26 was 4040 nM.

**Q.** How did the AC26 turn out when `Cc1ccc(-n2nc(C)c(NC(=O)CCl)c2C)cc1` was run?
**A.** The AC26 was 2210 nM.

**Q.** How did the AC26 turn out when `Cc1cccn2c(=O)c3cc(C(=O)NC4CCCC4)c(=N)n(CCc4ccccc4)c3nc12` was run?
**A.** Its AC26 is 1280 nM.

**Q.** `O=C(Nc1ccc(-c2nc3cc(NC(=O)c4cccs4)ccc3o2)cc1)c1cccs1` was tested. Which AC26 did it give?
**A.** Its AC26 is 4310 nM.

**Q.** Which AC26 does the source give for `Cn1c(=O)cc(OCCCC(=O)Nc2ccc3c(c2)OCCO3)c2ccccc21` here?
**A.** Its AC26 is 3060 nM.

**Q.** Which AC26 does the source give for `CC(C)Sc1ccccc1C(=O)Nc1ccc2c(c1)n(C)c(=O)n2C` here?
**A.** Its AC26 is 4830 nM.

**Q.** `Cc1ccc(C(=O)N/C(=C/c2ccco2)C(=O)NCCc2c[nH]c3ccccc23)cc1` was tested. Which AC26 did it give?
**A.** The AC26 was 2670 nM.

**Q.** Which AC26 does the source give for `Cc1cc(C)nc(SC2=CS(=O)(=O)c3ccccc32)n1` here?
**A.** Its AC26 is 4210 nM.

**Q.** For `COc1ccc2nc(SCC(=O)NC3CCCC3)c(C)cc2c1`, which AC26 is on record?
**A.** The AC26 was 10200 nM.

**Q.** Which AC26 does the source give for `CCn1c2ccccc2c2cc(NC(=O)COC(=O)c3cc(S(N)(=O)=O)c(Cl)cc3Cl)ccc21` here?
**A.** The AC26 was 3710 nM.

**Q.** For `COc1ccc(Cl)cc1NC(=O)CN(C)CC(=O)Nc1ccccc1N1CCOCC1`, which AC26 is on record?
**A.** The AC26 was 658 nM.

**Q.** With `CCOC(=O)N1CCC(NC(=O)c2ccc3c(c2)N=C(C)c2c(C)ccc(C)c2S3)CC1` as the compound, how does the AC26 read?
**A.** Its AC26 is 441 nM.

**Q.** How did the AC26 turn out when `COC1C(O)C(C)OC(OC2C(Oc3cccc4c(O)c5c(=O)oc6ccc(C)c7c(=O)oc(c34)c5c67)OC(C)C(O)C2O)C1O` (stereo unspecified) was run?
**A.** The AC26 was 1000 nM.

**Q.** With `CCn1c(SCC(=O)N/N=C/c2ccc(C)s2)nc2ccccc21` as the compound, how does the AC26 read?
**A.** Its AC26 is 2200 nM.

**Q.** For `COc1ccccc1N1CCN(S(=O)(=O)CCNC(=O)c2cc(OC)c(OC)c(OC)c2)CC1`, which AC26 is on record?
**A.** The AC26 was 3850 nM.

**Q.** For `COc1ccc(C(=O)/C=C/c2ccc(OC(=O)c3cc(OC)c(OC)c(OC)c3)cc2)cc1`, which AC26 is on record?
**A.** The AC26 was 3740 nM.

**Q.** `COc1ccc2cc(CN(CC3CCCO3)C(=O)Nc3ccccc3OC)c(=O)[nH]c2c1` (stereo unspecified) was tested. Which AC26 did it give?
**A.** Its AC26 is 4020 nM.

**Q.** Which AC26 does the source give for `NC(=O)c1cccc(-c2coc3c(C(=O)NCc4ccccc4)cccc23)c1` here?
**A.** The AC26 was 4070 nM.

**Q.** How did the AC26 turn out when `Clc1cccc(N2Cc3cc(-c4ccccc4)ccc3-n3nncc3C2)c1` was run?
**A.** The AC26 was 3580 nM.

**Q.** With `N#Cc1c(-c2ccc(F)cc2)c(-c2ccc(F)cc2)nn(CCO)c1=O` as the compound, how does the AC26 read?
**A.** The AC26 was 2080 nM.

**Q.** For `COc1ccc2c(c1)OC[C@H]1[C@H]2N2C(=O)c3cc(Cl)ccc3NC(=O)[C@@]2(C)[C@H]1c1ccccc1`, which AC26 is on record?
**A.** Its AC26 is 1250 nM.

**Q.** Which AC26 does the source give for `CN(C)S(=O)(=O)c1ccc(N2CCCC2)c(C(=O)Nc2nc(-c3ccc(F)cc3)cs2)c1` here?
**A.** Its AC26 is 1550 nM.

**Q.** For `COc1cc2nc(NC(=O)c3ccc(F)cc3Cl)sc(=O)c2cc1OC`, which AC26 is on record?
**A.** The AC26 was 1900 nM.

**Q.** How did the AC26 turn out when `COc1cc(Nc2c3c(nc4ccccc24)CCC3)cc(OC)c1OC` was run?
**A.** Its AC26 is 71.5 nM.

**Q.** `Cc1cc2c(cc(C(=O)OCC(=O)NCc3cccs3)n2C(C)C)o1` was tested. Which AC26 did it give?
**A.** Its AC26 is 1740 nM.

**Q.** Which AC26 does the source give for `Cc1noc(C)c1-c1ccc(C(=O)NCc2cccnc2)c2occc12` here?
**A.** Its AC26 is 4700 nM.

**Q.** With `Cc1ccc(-c2nc3ncccc3o2)cc1NC(=O)c1ccc([N+](=O)[O-])o1` as the compound, how does the AC26 read?
**A.** Its AC26 is 4010 nM.

**Q.** `Cn1c(=O)n(C)c2cc(NS(=O)(=O)c3ccc4c(c3)CCCC4)ccc21` was tested. Which AC26 did it give?
**A.** Its AC26 is 2670 nM.

**Q.** With `COc1ccccc1NC(=O)c1cnc(SCC(=O)NCC2CCCO2)n(C)c1=O` (stereo unspecified) as the compound, how does the AC26 read?
**A.** The AC26 was 1970 nM.

**Q.** With `COc1ccc(C2=NOC(C(=O)NCc3ccc(F)cc3)C2)cc1` (stereo unspecified) as the compound, how does the AC26 read?
**A.** Its AC26 is 516 nM.

**Q.** With `N#CC1=C(N)Oc2c(c(=O)sc3ccccc23)C1c1cccnc1` (stereo unspecified) as the compound, how does the AC26 read?
**A.** Its AC26 is 2860 nM.

**Q.** With `Cc1ccc2c(c1)C(=O)N1[C@H]3c4cc(Cl)ccc4OC[C@@H]3[C@H](c3ccccc3)[C@]1(C)C(=O)N2` as the compound, how does the AC26 read?
**A.** Its AC26 is 1260 nM.

**Q.** `Cn1c(=O)n(C)c2cc(NS(=O)(=O)c3ccc(F)cc3)ccc21` was tested. Which AC26 did it give?
**A.** The AC26 was 5290 nM.

**Q.** `COc1ccccc1-c1cc(C(=O)Nc2cc(C)nn2-c2ccccc2)no1` was tested. Which AC26 did it give?
**A.** Its AC26 is 760 nM.

**Q.** For `Cn1nc(C(=O)Nc2cccc(S(=O)(=O)N3CCCC3)c2)c2ccccc2c1=O`, which AC26 is on record?
**A.** Its AC26 is 666 nM.

**Q.** With `COc1cc(NC(=O)c2ccccc2F)ccc1NC(=O)c1cc2ccccc2o1` as the compound, how does the AC26 read?
**A.** Its AC26 is 2390 nM.

**Q.** Which AC26 does the source give for `COc1ccc(C(=O)c2ccc(N(C)C)cc2)c2ccccc12` here?
**A.** Its AC26 is 2000 nM.

**Q.** `CCOc1ccc(Cl)cc1C1=CC(=O)C[C@H](c2ccc(OC)cc2)C1` was tested. Which AC26 did it give?
**A.** Its AC26 is 472 nM.

**Q.** For `NC(=O)CC(NC(=O)Cc1ccc(Br)cc1)c1ccc(NC2CCN(Cc3ccccc3)CC2)c([N+](=O)[O-])c1` (stereo unspecified), which AC26 is on record?
**A.** The AC26 was 496 nM.

**Q.** How did the AC26 turn out when `CCOC(=O)N1CCN(C(=O)c2cc(-c3ccncc3)nc3ccccc23)CC1` was run?
**A.** Its AC26 is 1410 nM.

**Q.** Which AC26 does the source give for `CC1(C(=O)NCc2ccco2)Cc2c(-c3cccc(C(N)=O)c3)ccnc2O1` (stereo unspecified) here?
**A.** The AC26 was 1450 nM.

**Q.** Which AC26 does the source give for `COc1ccc(NC(=O)C2Cc3c(-c4cccc(NC(C)=O)c4)ccnc3O2)cn1` (stereo unspecified) here?
**A.** Its AC26 is 2590 nM.

**Q.** How did the AC26 turn out when `O=c1cc(-c2ccccc2)[nH]c2ccccc12` was run?
**A.** Its AC26 is 433 nM.
